“Also recorded” adds a separate entry of the source. Where no end group is shown, it is not given here.
What was measured:
[1] = test system: hyperproliferative psoriatic keratinocytes; assay: differentiation assay (K1/K10 mRNA, Northern blot / RT-PCR) on hyperproliferative psoriatic keratinocytes; type: cell-based, human
Method: RNA extraction is carried out according to the manufacturers instructions using the RNeasy kit (QIAGEN). 20 μg of RNA for each treatment was separated on a 1.2% agarose (1.8% formaldehyde) gel and transferred onto a nylon membrane (Zeta probe GT membranes, BioRad) by capillary transfer. The RNA is fixed to the membrane by UV crosslinking. DNA probes for the differentiation markers K1 and K10(50 ng) are labelled with [α-^32P] dCTP using the Prime-It RmT Primer labeling kit (Stratagene) following the manufacturer's instructions. Unincorporated nucleotides are removed by elution through a Microspin G25 column (Pharmacia Biotech). The blots are wetted in 0.25M sodium phosphate (pH 7.2)/7% SDS for 30 minutes at 65° C. Fresh hybridisation solution is added along with the radiolabelled probe and the blot is hybridised overnight at 65° C.
The blot is washed for 2×5 minutes in 0.25M sodium phosphate (pH 7.2), 7% SDS and then for 2×5 minutes in 20 mM sodium phosphate (pH 7.2), 5% SDS at 65° C. The wash steps are repeated until a clear distinction can be made between the signal and non-specific background. The blot is exposed to x-ray film for 24 hours before developing.
Synthesis of mRNA for the K1 and K10 keratin (markers for commitment to terminal differentiation) is examined by quantitative reverse transcription PCR (RT-PCR). Synthesis of mRNA for Cyclin D (a marker for cell proliferation) is also assayed by RT-PCR. Standard protocol for RT-PCR is followed as recommended by the manufacturer of the PCR machine (PE 2400) using 1 μg RNA from each keratinocyte culture. Suitable primers for RT-PCR are designed based on the human sequences of K1 and K10 deposited in GenBank. Northern blots are also performed: cells are harvested, RNA extracted and 20 μg RNA loaded into each well of a formaldehyde/agarose gel. The RNA is blotted onto a nylon membrane by capillary transfer and expression of K1 mRNA is determined by Northern hybridisation with a radiolabelled DNA probe.
Next, hyperproliferative epidermal keratinocytes are obtained, isolated and cultured as described above in Example 3. Hyperproliferative psoriatic keratinocytes are cultured as described above in serum-free medium with or without the addition of […] human retinol binding protein. At confluence the cells are treated (see Table 3 below) for 96 hours with peptides to 6 μM (medium replaced after 48 hours). Treatments shown in the Table 3 are for duplicate T-25 flasks (2×7 ml for each treatment).
The final concentrations are: Ca^2+ 1.2 mM, RBP 0.6 μM, peptides 6 μM.
Expression of K1 and K10 markers is determined as described above in Example 4. […]
Synthesis of mRNA for markers of proliferation and differentiation is also examined by semi-quantitative reverse transcription PCR (RT-PCR). […]

[2] = test system: hyperproliferative psoriatic keratinocytes; assay: proliferation assay (Coulter cell counter) on hyperproliferative psoriatic keratinocytes; type: cell-based, human
From the text: Biopsy samples are obtained from psoriatic patients. Skin from patients with chronic plaque psoriasis are obtained with informed consent. Ethical approval has been obtained previously from The South Sheffield Regional Ethics Committee. Biopsies are all be taken from the lower back in psoriasis patients aged 40 to 60.
Remove subcutaneous tissue and some of the dermis with scissors, dissect skin into 1×2 cm pieces with a scalpel. Rinse the tissue 2-5 times in PBSA. Float skin samples on 0.6% Trypsin in PBSA (pH 7.4) ON at 4° C. (or alternatively for 20-30 min at 37° C.)
The separation of the epidermis is carefully monitored. When the first detachment of the epidermis is visible at the cut edges of the skin sample place the pieces (dermis-side down) in 100 mm Petri dishes. Irrigate with 5 ml of complete culture medium (incl. serum). Peel off the epidermis with forceps and collect it in a 50 ml centrifuge tube containing 20 ml of complete culture medium (KGM). Separate the keratinocytes from the epidermal cells by gently pipetting and sieving through a nylon gauze of 100 μm mesh. Wash the isolated epidermal cells twice in KGM by centrifugation at 100 g for 10 min, and count the total number of cells.
Cells are seeded at 37° C. in KGM medium at a density of 2500 cells/cm^2 in a 25 cm^2 cell culture flask. The medium is replaced every 48 hours and cells are passaged when confluent.
Cell Seeding and Analysis: Purchased secondary cultures or primary cultures (from donor skin) are seeded at 3500 cells/cm^2 in K-SFM 25 cm^2 tissue culture flasks. The medium is changed (5 ml per flask) the day after seeding and every other day thereafter. At 70-80% confluence the cells are subcultured by seeding 3500 cells per well in 24 well cell culture plates, each well containing 500 μl of K-SFM. One well plate is seeded for each treatment. After allowing one day for settling the cells are switched to experimental medium (500 μl per well). Stock solutions of additions are as before. Experimental treatments are as follows:
The medium is replaced every other day. Cells are harvested by trypsinisation. 500 μl Trypsin/EDTA is added to each well to be harvested and then aspirated off. The well plates are incubated for 5-6 min at 37° C. 500 μl PBS is added to the wells and the cells are resuspended. The cell suspension is added to 20 ml Isoton solution in a Coulter counter “Accuvette” and the cells are counted. On each harvest, 3 wells of cells are counted for each treatment and 3 counts were made for each well.
Cell number is calculated as follows: Coulter Counter removes 500 μl of 20 ml sample ( 1/40). Multiply cell count by 40 to obtain cell number in cup, this equals the total number of cells in one well (approximately, as ˜10% taken out for viability test). […]

COS-7 cells = assay: proliferation assay of COS-7 cells (Coulter counter); type: cell-based; conditions: P142 1 mg/ml, peptides 6 μM; 24 and 48 hours after treatment; FIG. 8
Method: (§1) […] (COS1 and COS7) are purchased from the European Cell Culture Collection, thawed and propagated according to the instructions from the supplier; cells are cultured essentially in the same manner as for normal human keratinocytes (Example 3 above), except that cells are seeded at 20 000 cells/cm^2, with only one treatment with antibody P142, control immunoglobulin, peptide 589, peptide 592 or control peptide 24 hrs after seeding.
(§2) Proliferation is assayed by counting cells in a Coulter counter, as described above.

[3] = test system: human dermal fibroblast cells; assay: proliferation assay of human dermal fibroblast cells; type: cell-based; conditions: P142 1 mg/ml, peptides 6 μM; 24 hours and 4 days after treatment; FIG. 9
Method: Fibroblast cell culture is performed essentially as described for culture of hyperproliferative psoriatic keratinocytes (Example 3), except that following irrigation with complete culture medium, the dermal portion is incubated with 1 mg/ml of collagenase (Sigma) in 20 ml DMEM in a 50 ml centrifuge tube for 16 hours at 37° C. Then 20 ml DMEM containing 5% foetal calf serum and 1% antibiotic/antimycotic solution (Gibco) is added and the cells seeded at 37° C. in DMEM medium+additions at a density of 2500 cells/cm^2 in a 25 cm^2 cell culture flask. Medium is replaced every 48 hours and cells passaged when confluent.
Fibroblast cell culture and experiments are performed essentially as described for culture of hyperproliferative psoriatic keratinocytes (above), except that following irrigation with complete culture medium, the dermal portion is processed further. Reference is made to fibroblast culture protocols set out above.
Proliferation of cells is assayed by direct cell counting essentially as for determination of proliferation in keratinocyte cell cultures. RDH, ADH, RalDH inhibitors are found to reduce proliferation.

COS-1 cells = assay: proliferation assay of COS-1 cells (Coulter counter); type: cell-based; conditions: P142 1 mg/ml, peptides 6 μM; 24 and 48 hours after treatment; FIG. 7
Method: as §1, §2

[4] = peptides 6 μM, Ca2+ 1.2 mM, RBP 0.6 μM

| Molecule | effect of RBP or ROL on differentiation ([1]; under differentiation pressure from 1.2 mM calcium) | keratinocyte proliferation on addition of retinol or retinoic acid ([2]; 1.2 mM Ca2+, 2 μM ROL, FIG. 10) | proliferation of Cos-7 cells (cell numbers) (COS-7 cells) | fibroblast proliferation (cell numbers) [3] | differentiation (expression of K1 and K10 markers) [1, 4] | effect on RBP-increased proliferation [2, 4] | proliferation of Cos-1 cells (cell numbers) (COS-1 cells) |
| --- | --- | --- | --- | --- | --- | --- | --- |
| CC1=C(/C=C/C(C)=C/C=C/C(C)=C/CO)C(C)(C)CCC1 [retinol, (2E,4E,6E,8E)-3,7-dimethyl-9-(2,6,6-trimethylcyclohex-1-en-1-yl)nona-2,4,6,8-tetraen-1-ol, reference compound] | inhibition of differentiation | induced | – | – | – | – | – |
| MKYWGVASFLQKGND [Peptide 592] | – | – | marked reduction in proliferation | greater reduction in proliferation | reversed; also recorded: same effect | reversed | marked reduction in proliferation |

Reference: patent US8048918B2, “Treatment of hyperproliferative diseases” (Vampex Limited, priority 2000, dated 2011)
